According to patent US20130156795A1, “METHODS FOR INHIBITION OF CELL PROLIFERATION, SYNERGISTIC TRANSCRIPTION MODULES AND USES THEREOF” (priority 2009, published 2013):
Entries after “also recorded” stand apart in the source; their conditions may differ. Read-outs that look alike come from different tables or passages of the source.

Legend:
[1] = test system: C/EBPbeta-luciferase reporter; assay: C/EBPbeta-luciferase reporter screen in SNB19 glioma cells; type: cell-based, human
Method: SNB19 human glioma cells were stably transfected with the C/EBPbeta-driven luciferase plasmid (FIG. 36). Several clones were isolated and propagated. […] Cells were transfected with control siRNAs or siRNA oligonucleotides targeting C/EBPbeta (for example, SEQ ID NO: 228 or SEQ ID NO: 229). The control siRNA sequence is the Dharmacon ON-TARGETpIus Non-targeting Pool (Cat#: D-001810-10-20). Luciferase activity was measured on a luminometer and the results are shown after normalization with renilla.
A multimerized C/EBPbeta-luciferase reporter was stably introduced in SNB19 and a screening of ˜9,800 compounds was done to identify positive candidates.

T98G glioma cell line = assay: ZNF238 and ZNF238-target mRNA expression by quantitative PCR in T98G cells; type: cell-based, human
Method: FIG. 12A, Graphical representation of the promoter of ZNF238. The region between −1800 and −3400 contains stretches of CpG islands. FIG. 12B, 5-Azacytidine induces expression of ZNF238. T98G cells were treated with 5-Azacytidine at the indicated concentrations for 3 days. Expression of ZNF238 was analyzed by quantitative PCR. […] HPRT was used as control for normalization.
Computational and expression predictions converged towards the identification of a highly vulnerable structure of the regulatory region controlling ZNF238 expression. The ZNF238 promoter/enhancer is unusually rich in evolutionarily conserved CpG islands (FIG. 12A), which are targeted by DNA methyltransferases leading to gene expression silencing. Methylation of regulatory DNA regions is a common mechanism in human cancer and is implicated in the constitutive silencing of tumor suppressor genes in malignant glioma (109; herein incorporated by reference in its entirety). Thus, whether promoter methylation induces silencing of ZNF238 was considered. Pharmacological inhibition of methylation with an inhibitor of DNA methyltransferases (5-Azacytidine) elevated the expression of ZNF238 mRNA in the T98G glioma cell line (FIG. 12B) and repressed the expression of SerpineH1 and CH3IRL1 (FIG. 12C), two mesenchymal genes predicted as ZNF238 targets by ARACNe (FIG. 1).

SNB19 glioma cells = assay: Intracranial xenograft of shRNA-transduced SNB19 glioma cells in immunocompromised mice; type: in vivo, mouse; conditions: SNB19 xenografted into striatum, 120 days from injection
Method: Next, it was considred whether loss of C/EBPβ and Stat3 in glioma cells reduced tumor aggressiveness in vitro and in vivo. […] Then, the impact of C/EBPβ and Stat3 knockdown for brain tumorigenesis in vivo was determined. SNB19 cells transduced with non-targeting control shRNA lentivirus or shRNA targeting C/EBPβ and/or Stat3 were xenografted into the striatum of immunocompromised mice. […] However, only one of four mice from the shC/EBPβ and one of five mice from the shC/EBPβ+shStat3 groups developed tumors after 120 days from the injection (FIG. 22B). […] Conversely, the single tumor in the shC/EBPβ+shStat3 group grew well circumscribed and was less angiogenic.
Intracranial injection of SNB19 glioma cell line and GBM-derived BTICs was performed in 6-8 weeks NOD/SCID mice (Charles River laboratories) in accordance with guidelines of the International Agency for Reserch on Cancer's Animal Care and Use Committee. Briefly, 48 h after lentiviral infection, 2×10^5 SNB19 or 3×10^5 BTICs were injected 2 mm lateral and 0.5 mm anterior to the bregma, 3 mm below the skull. Mice were monitored daily and sacrificed when neurological symptoms appeared. Kaplan-Meier survival curve of the mice injected with SNB19 glioma cells was generated using the DNA Statview software package (AbacusConcepts, Berkeley Calif.).

GBM-BTICs and SNB19 = assay: qRT-PCR of C/EBPβ and Stat3 mRNA after lentivirus-mediated shRNA silencing; type: cell-based, human
Method: For loss-of-function experiments, lentivirus-mediated shRNA silencing of C/EBPβ and Stat3 in the human glioma cell line SNB19 and in early-passage cultures of tumor cells derived from primary GBM was performed. The latter were grown in serum-free conditions, in the presence of the growth factors bFGF and EGF. These culture conditions preserve the tumor stem cell-like features of GBM-derived cells and propel the formation of GBM-like tumors after intracranial transplantation in immunodeficient mice {Lee, 2006; herein incorporated by reference in its entirety} (GBM-derived brain tumor initiating cells, GBM-BTICs, see FIG. 22 for the analysis of their tumor-initiating capacity). At least three replicates for each condition were produced and a global dataset of 89 individual samples was generated, including 55 knockdown experiments in human glioma cells and 34 ectopic expression experiments in mouse NSCs. Gene expression profiles of human samples were produced with the HT-12v3 Illumina BeadArrays (including 24,385 human genes), while murine samples were profiled on mouse-6V2 Illumina BeadArrays (including 20,311 mouse genes). 14,857 murine genes were mapped to human orthologs, using the homologene database (http://www.ncbi.nlm.nih.gov/homologene; herein incorporated by reference in its entirety). Of the 149 genes in the MGES, 118 could be mapped to murine genes represented on the mouse-6V2 array.
Reciprocal changes followed ectopic expression of the two TFs in C17.2 and NSC cells (Table 10) qRT-PCR values and microarray-based measurements were highly correlated for Stat3 but not for C/EBPβ mRNA (FIG. 24). Moreover, the Stat3C and C/EBPβ constructs used in the ectopic expression experiments in mouse NSCs lack the 3′ UTR sequence targeted by the Illumina probes. Thus, the qRT-PCR values for C/EBPβ and Stat3 were used, rather than the microarray measurements, as more accurate read-outs for their mRNA expression across the 89 samples.
RNA was prepared with RiboPure kit (Ambion), and used for first strand cDNA synthesis using random primers and SuperScriptll Reverse Transcriptase (Invitrogen). QRT-PCR was performed using Power SYBR Green PCR Master Mix (Applied Biosystems). QRT-PCR results were analyzed by the ΔΔCT method (Livak & Schmittgen, Methods 25:402, 2001; herein incorporated by reference in its entirety) using GAPDH or 18S as housekeeping genes.
Lentiviral expression vectors carrying shRNAs were purchased from Sigma. To generate lentiviral particles, each shRNA expression plasmid was co-transfected with pCMV-dR8.91 and pCMV-MD2.G vectors into human embryonic kidney 293T cells using Fugene 6 (Roche). Lentiviral infections were performed as described {Zhao, 2008; herein incorporated by reference in its entirety}.

[2] = test system: SNB19 human glioma cell line; assay: Gene expression profiling and GSEA after shRNA silencing of MR-TFs in SNB19; type: cell-based; conditions: shRNA knock-down in human glioma cells; for Enrichment of ATF2 regulon on TF-knock-down gene expression profile by GSEA, nES: Control TF regulon ATF2 (negative control), size 386; for Enrichment of SOX15 regulon on TF-knock-down gene expression profile by GSEA, nES: Control TF regulon SOX15 (negative control), size 213; for Enrichment of ZNF277 regulon on TF-knock-down gene expression profile by GSEA, nES: Control TF regulon ZNF277 (negative control), size 238; for Enrichment of ZNF500 regulon on TF-knock-down gene expression profile by GSEA, nES: Control TF regulon ZNF500 (negative control), size 469; for Enrichment of the MGES on genes downregulated after MR-TF knock-down, nES: MGES Enrich.; for Enrichment of C/EBPβ regulon on TF-knock-down gene expression profile by GSEA, nES: Module TF regulon C/EBPβ, size 209; for Enrichment of FosL2 regulon on TF-knock-down gene expression profile by GSEA, nES: Module TF regulon FosL2, size 403; for Enrichment of Runx1 regulon on TF-knock-down gene expression profile by GSEA, nES: Module TF regulon Runx1, size 490; for Enrichment of Stat3 regulon on TF-knock-down gene expression profile by GSEA, nES: Module TF regulon Stat3, size 366; for Enrichment of bHLH-B2 regulon on TF-knock-down gene expression profile by GSEA, nES: Module TF regulon bHLH-B2, size 226
Source text: To test whether specific gene signatures were globally differentially regulated, we used the Gene Set Enrichment analysis method (A31; herein incorporated by reference in its entirety). In this method, the Kolmogorov-Smirnoff test is used to determine whether two gene lists are statistically correlated. In this case, one list includes genes on the microarray expression profile dataset, ranked by their differential expression statistics across two conditions (e.g. ectopically expressed Stat3C/C/EBPβ vs. control), from most over- to most underexpressed. The other list contains non-ranked genes in a specific signature (e.g. mesenchymal). This is very useful to detect, for instance, situations where signature genes can be differentially expressed as a whole, even though the fold-change can be small for each gene in isolation. In this case, a gene-by-gene test, such as a T-test, cannot reveal statistical significance. The algorithm was set to implement weighted scoring scheme and the enrichment score significance was assessed by 1000 permutation tests.
Next, lentivirus-mediated shRNA silencing of the five TFs (C/EBPβ, Stat3, bHLH-B2, FosL2, and Runx1) was performed in the SNB19 human glioma cell line, followed by gene expression profiling using HT-12v3 Illumina BeadArrays in triplicate.
RNA amplification for Array analysis was performed with Illumina TotalPrep RNA Amplification Kit (Ambion). 1.5 μg of amplified RNA was hybridized on Illumina HumanHT-12v3 or MouseWG-6 expression BeadChip according to the manufacturer's instructions. Hybridization data was obtained with an iScan BeadArray scanner (Illumina) and pre-processed by variance stabilization and robust spline normalization implemented in the lumi package under the R-system (Du, P., Kibbe, W. A. and Lin, S. M., (2008) ‘lumi: a pipeline for processing Illumina microarray’, Bioinformatics 24(13):1547-1548; herein incorporated by reference in its entirety).

phospho-STAT3 = assay: Inhibition of active STAT3 (phospho-STAT3); type: cell-based, human

Row | Compound | mice that developed tumors (SNB19 glioma cells) | C/EBPβ mRNA level relative to non-target shRNA transduced cells (fold ratio, median ± MAD) (GBM-BTICs and SNB19) | Stat3 mRNA level relative to non-target shRNA transduced cells (fold ratio, median ± MAD) (GBM-BTICs and SNB19) | Enrichment of ATF2 regulon on TF-knock-down gene expression profile by GSEA, nES [2] | Enrichment of SOX15 regulon on TF-knock-down gene expression profile by GSEA, nES [2] | Enrichment of ZNF277 regulon on TF-knock-down gene expression profile by GSEA, nES [2] | Enrichment of ZNF500 regulon on TF-knock-down gene expression profile by GSEA, nES [2] | Enrichment of the MGES on genes downregulated after MR-TF knock-down, nES [2] | Enrichment of C/EBPβ regulon on TF-knock-down gene expression profile by GSEA, nES [2] | Enrichment of FosL2 regulon on TF-knock-down gene expression profile by GSEA, nES [2] | Enrichment of Runx1 regulon on TF-knock-down gene expression profile by GSEA, nES [2] | Enrichment of Stat3 regulon on TF-knock-down gene expression profile by GSEA, nES [2] | Enrichment of bHLH-B2 regulon on TF-knock-down gene expression profile by GSEA, nES [2] | further results
1 | O=c1[nH]cc(F)c(=O)[nH]1 [5-fluorouracil] | – | – | – | – | – | – | – | – | – | – | – | – | – | inhibition of C/EBPb activity, C/EBPb gene reporter assay ([1]; reporter activity at 48 hr, various dosages (FIG. 38A, 39A)): inhibition
2 | Nc1ncn([C@@H]2O[C@H](CO)[C@@H](O)[C@H]2O)c(=O)n1 [5-Azacytidine] | – | – | – | – | – | – | – | – | – | – | – | – | – | expression of CH3IRL1 (T98G glioma cell line): repressed; expression of SerpineH1 (T98G glioma cell line): repressed; expression of ZNF238 mRNA (T98G glioma cell line; 3 days, quantitative PCR): induces; also recorded: elevated; Expression of selected ZNF238 targets (T98G glioma cell line; HPRT normalization (FIG. 12C)): down-regulated
3 | shC/EBPβ: lentiviral shRNA specific for C/EBPβ purchased from Sigma (TRCN0000007442, SEQ ID NO: 225) (CCGGCGACTTCCTCTCCGACCTCTTCTCGAGAAGAGGTCGGAGAGGAAGTCGTTTTT) | one of four | 0.26 ± 0.119 | 1.13 ± 0.43 | 1.54 | 0.28 | −0.79 | −0.24 | 3.23 | 1.91 | 3.83 | 0.55 | 2.49 | 1.74 | C/EBPβ mRNA level relative to non-target shRNA transduced cells (fold ratio, median ± MAD) (GBM-BTICs and SNB19; listed as C/EBPβ shRNA): 0.26
4 | shStat3: lentiviral shRNA specific for Stat3 purchased from Sigma (TRCN0000020843, SEQ ID NO: 224) (CCGGGCAAAGAATCACATGCCACTTCTCGAGAAGTGGCATGTGATTCTTTGCTTTTT) | all mice | 0.87 ± 0.111 | 0.205 ± 0.052 | −0.24 | −2.81 | −0.55 | 0.20 | 3.59 | 2.43 | 4.98 | 2.41 | 1.78 | 0.59 | Stat3 mRNA level relative to non-target shRNA transduced cells (fold ratio, median ± MAD) (GBM-BTICs and SNB19; listed as Stat3-shRNA): 0.205
5 | COc1cc([C@@H]2c3cc4c(cc3[C@@H](O[C@@H]3O[C@@H]5CO[C@@H](C)O[C@H]5[C@H](O)[C@H]3O)[C@H]3COC(=O)[C@H]23)OCO4)cc(OC)c1O [etoposide] | – | – | – | – | – | – | – | – | – | – | – | – | – | inhibition of the active form of STAT3 (phospho-STAT3) (phospho-STAT3): inhibit; inhibition of CCAAT/enhancer-binding protein (CEBP) luciferase reporter ([1]; pilot screen, microsource library (2000 compounds), SNB19): inhibit
